Experimental findings from patent publication US9139485B2, “Plant treatment agent” (UNIVERSITI PUTRA MALAYSIA, priority 2011, dated 2015) are described below.

The structures appear in SMILES notation. Marks after values point to notes of the source that are not given here.

The subject of data set [1] is Hybrid no. 5 variety (Zea mays L.). In words: Greenhouse pot experiment: dry weight, N, P, K uptake and use efficiency of maize plant. The following applies: 56 days after planting. Type of data set: in vivo. How it is done: A pot experiment was conducted in a greenhouse of Universiti Putra Malaysia Bintulu Sarawak Campus, Malaysia using randomized complete block design (RCBD) with three replications. Each pot size was 22×28 cm. Each was filled with 10 kg soil (based on bulk density of the soil). Hybrid no. 5 variety (Zea mays L.) was used as the test crop. Its N, P, and K requirement were 60 kg N, 60 kg P2O5 and 40 kg K2O (130 kg ha^−1 urea: 130 kg ha^−1 TSP: 67 kg ha^−1 KCl). The fertilizer requirement was scaled down to per pot basis equivalent to 2.02 g of urea, […]. The volume of water used for each pot was based on field capacity (70%). The three treatments devised for this experiment were as follows: • i. No fertilizer (T0) • ii. 2.02 g urea (T1) • iii. 2.02 g urea+7 L peat soil water (T2)
All treatments were applied on the 10th day after planting (DAP). However TSP and KCl which were common to all the treatments were applied on 10 DAP and 28 DAP. The plants were monitored until tassel stage. Tassel stage is the maximum growth stage for plants before they enter productive stage.
Harvesting was done on the 56th DAP. The whole plant including leaves and stem were harvested. The remaining roots in the soil were removed carefully. They were cleaned using tap and distilled water. The plant parts (leaves, stem and roots) were then oven-dried at 60° C. until constant weight was attained afterwhich they weighed using a digital balance. Soil samples were also taken from the pots, air-dried, pounded and sieved to a pass 2 mm before they were analyzed for pH, exchangeable cations (K, Mg, and Ca), total carbon, total N, available P, exchangeable ammonium and available nitrate, using standard procedures. Each plants part was ground and analyzed for total K, Mg, Ca, Na, N, and P.
Nitrogen, P and K uptake in leaves, stem and roots were determined by multiplying the concentration with the dry weight of the plant parts. Nitrogen, P and K use efficiency were determined by the formula of Pomares-Gracia and Pratt (1987).
Analysis of variance (ANOVA) was used to test the effect of treatments while means of treatments were compared using Duncan's Test. Statistical Analysis System (SAS Ver. 9.2) was used for the statistical analysis.

A short description of data set [2]: Selected chemical properties of peat soil water and urea. Type of data set: physicochemical. The following applies: glass electrode. Here is the method:
Peat soil water (waste water) was collected from natural flows of peat water at Suai Miri Sarawak, Malaysia. The mineral soil used was Bekenu Series (Fine loamy, siliceous, isohyperthermic, red-yellow to yellow Tipik Tualemkuts). It was sampled in an undisturbed area of Universiti Putra Malaysia Bintulu Sarawak Campus, Malaysia using an auger. The soil taken at 0-15 cm depth was air dried and ground to pass 2.0 mm sieve for laboratory experiment. The soil texture was determined using the hydrometer method (Bouyoucos, 1962) and its field capacity and bulk density determined by the method described by Tan (2005). The pH of the soil was determined in a 1:2 soil:distilled water suspension and KCl using a glass electrode. However, the pH of the peat soil water was determined directly from filtered samples using a glass electrode. The soil total carbon, N and organic matter were determined using LECO CHNS Analyzer (Leco Truspec Micro Elemental Analyzer CHNS, New York). Soil available P was extracted using the double acid method (Tan, 2005) followed by blue method (Murphy and Riley, 1962). The Kjedhal method was used to determine total N. Exchangeable cations were extracted using leaching method and their concentrations were afterwards determined using followed Atomic Absorption Spectrometry (AAS). Soil CEC was determined by the leaching method followed by steam distillation.

For `NC(N)=O` [Treatment T1, urea], in data set [1], the “dry weight of maize plant, Leaves” value is listed as 6.00^b g plant^−1; the “dry weight of maize plant, Roots” value is on record as 3.18^b g plant^−1; the “dry weight of maize plant, Stems” value is 5.71^d g plant^−1; the “dry weight of maize plant, Total” value was 14.89^b g plant^−1. In addition, in data set [1] (Leaves), the “K use efficiency of maize plant” value was 1.17^a %, the “N use efficiency of maize plant” value is on record as 1.26^a % and the “P use efficiency of maize plant” value is 0.31^a %. In data set [1] (Roots), the “K use efficiency of maize plant” value is reported as 1.75^a %, the “N use efficiency of maize plant” value is listed as 0.37^a % and the “P use efficiency of maize plant” value is 0.40^a %. Moreover, in data set [1] (Stem), the “K use efficiency of maize plant” value is 2.17^a %, the “N use efficiency of maize plant” value is reported as 0.24^d % and the “P use efficiency of maize plant” value is 0.32^a %. Besides, in data set [1] (Total), the “K use efficiency of maize plant” value was 5.09^a %, the “N use efficiency of maize plant” value is on record as 1.87^a % and the “P use efficiency of maize plant” value is on record as 1.03^a %. The same compound returned a pHw in data set [2] (listed as Urea) of 8.00. The pHw result in data set [2] (listed as urea) is “basic”.
